A short description of series [1]: Concentrations in plasma and brain of wild-type and M1R KO mice. It counts as in vivo. Conditions: mouse, po; for concentration at 2 h: mean ± SD; for Kp at 2 h: brain/plasma. The procedure: (§1) Eight‐week‐old Long‐Evans rats, 8‐ to 9‐week‐old C57BL/6J mice, and 22‐ or 29‐week‐old M1R KO mice and their WT littermates were used in this study. On the day of the experiment, animals were placed in individual cages and acclimated for more than 1 hour. A test compound or vehicle was administered 2 hours before the animals were sacrificed. […] LiCl (10 mmol/kg, s.c.) was injected 1 hour before sacrifice. In the repeated administration study, a test compound was administered to mice once daily for 13 days; on day 14, animals were treated with a test compound and LiCl (10 mmol/kg, s.c.) and then sacrificed. Animals were killed by decapitation, and blood was collected into tubes containing ethylenediaminetetraacetic acid for pharmacokinetic analysis; brains were quickly dissected, frozen on dry ice, and stored at −80°C until analysis. Brain tissues were homogenized in 19 (for rat tissues) or 39 (for mouse tissue) volumes of homogenization buffer (10 mmol/L HEPES pH 7.4, 50 mmol/L LiCl, 150 mmol/L NaCl, and 1% Triton X‐100), and the homogenate was incubated on a rotator for 1 hour, followed by centrifugation. The supernatant was diluted with 39 (for rat tissues) or 19 (for mouse tissues) volumes of dilution buffer (10 mmol/L HEPES pH 7.4, 50 mmol/L LiCl, and 150 mmol/L NaCl). IP1 and protein concentrations in the diluted supernatant were measured using IP‐One HTRF assay kit (Cisbio Bioassays) and BCA Protein Assay Kit (Thermo Fisher Scientific Inc), respectively, according to the manufacturers’ instructions. IP1 production was expressed as the ratio of IP1 to protein concentrations.

The test system of series [2] is IP1 production in the mouse hippocampus. The experiment in a line: In vivo IP1 assay, mouse hippocampus. The following applies: p.o.; 3, 10, 30 mg/kg tested. On the procedure: as §1, with “Brain tissues were homogenized in 19 (for rat tissues) or 39 (for mouse tissue) volumes of homogenization buffer (10 mmol/L HEPES pH 7.4, 50 mmol/L LiCl, 150 mmol/L NaCl, and 1% Triton X‐100), and the homogenate was incubated on a rotator for 1 hour, followed by centrifugation. The supernatant was diluted with 39 (for rat tissues) or 19 (for mouse tissues) volumes of dilution buffer (10 mmol/L HEPES pH 7.4, 50 mmol/L LiCl, and 150 mmol/L NaCl).” left out

The target in series [3] is T1, human M1R (Homo sapiens, UniProt P11229).
T1 sequence (P11229 1-460): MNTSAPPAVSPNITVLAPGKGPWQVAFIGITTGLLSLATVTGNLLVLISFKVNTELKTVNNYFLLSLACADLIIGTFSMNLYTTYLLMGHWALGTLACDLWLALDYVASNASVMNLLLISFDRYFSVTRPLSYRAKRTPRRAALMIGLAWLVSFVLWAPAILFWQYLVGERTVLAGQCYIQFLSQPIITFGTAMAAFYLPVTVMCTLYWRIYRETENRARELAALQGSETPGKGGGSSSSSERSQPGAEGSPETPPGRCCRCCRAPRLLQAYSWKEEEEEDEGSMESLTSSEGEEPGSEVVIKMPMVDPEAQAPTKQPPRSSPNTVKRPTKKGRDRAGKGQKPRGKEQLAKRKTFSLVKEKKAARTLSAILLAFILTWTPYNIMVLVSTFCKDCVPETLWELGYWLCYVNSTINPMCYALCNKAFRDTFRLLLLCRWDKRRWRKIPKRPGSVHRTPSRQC
Briefly: [3H]‐pirenzepine binding assay (cooperativity, allosteric ternary complex model). The following applies: between PAM and ACh; for Cooperativity Log α: 95% confidence intervals in parentheses. On the set-up: expressed in transfected cells. On the procedure:
Cell membranes from FreeStyle 293 cells transiently expressing human M1R were incubated with T‐495 or MK‐7622 (0.1‐30 μmol/L), ACh (0.003‐3000 μmol/L), and 4 nmol/L [^3H]‐pirenzepine (PerkinElmer) in assay buffer (20 mmol/L HEPES, 100 mmol/L NaCl, 10 mmol/L MgCl2, and 0.1% fatty acid free BSA) for 2 hours at room temperature. The binding was terminated by filtration through GF/C filter plates (PerkinElmer) using a cell harvester (PerkinElmer) and five washed with 300 μL of 50 mmol/L Tris‐HCl. The GF/C plates were dried at 42°C; then, 25 μL of microscint 0 (PerkinElmer) was added. Radioactivity was counted using Topcount (PerkinElmer). Nonspecific binding was defined in the presence of 10 μmol/L atropine. To calculate the cooperativity of a PAM, the [^3H]‐pirenzepine binding assay data were fitted to the allosteric ternary complex model,35 using GraphPad Prism 5 software: Y=C/KC+αBC[B][C]/KBKC/1+A/KA+B/KB+C/KC+αAB[A][B]/KAKB+αBC[B][C]/KBKC
where Y is the fractional specific [^3H]‐pirenzepine binding; [A], [B], and [C] are the concentrations of ACh, a PAM, and [^3H]‐pirenzepine, respectively; K A, K B, and K C are the equilibrium dissociation constants of ACh, a PAM, and [^3H]‐pirenzepine, respectively; and αAB and αBC are the cooperativities between a PAM and ACh or [^3H]‐pirenzepine, respectively.

The subject of series [4] is IP1 production in the rat hippocampus. Briefly: In vivo IP1 assay, rat hippocampus. Conditions: LiCl 10 mmol/kg s.c., vs vehicle. The procedure: as §1
Series [5] deals with T1, human M1R. Briefly: Ca2+ mobilization assay, agonist activity (absence of ACh), CHO‐K1 cells. The format is cell-based. Details: expressed in transfected cells; host or cells: CHO-K1. The following applies: for margin between PAM and agonist activities: CHO‐K1 cells expressing human M1R. The procedure: (§2) Chinese hamster ovary (CHO)‐K1 cells expressing M1R–M5R were plated on a 96‐well black, clear bottom plate at 30 000 cells/well and incubated at 37°C in an atmosphere of 5% CO2 for 1 day. On the day of the assay, cells were incubated with calcium dye buffer (Hanks’ Balanced Salt Solution (HBSS) containing 20 mmol/L HEPES, 0.1% fatty acid‐free bovine serum albumin (BSA), 0.08% pluronic F127 (Dojindo Laboratories), 2.5 μg/mL Fluo‐4 (Dojindo Laboratories), and 1.25 mmol/L probenecid (Dojindo Laboratories)) for 30 minutes at 37°C in an atmosphere of 5% CO2 and then incubated for 30 minutes at room temperature. To measure Ca^2+ mobilization using CellLux (PerkinElmer), cells were stimulated with T‐495 or MK‐7622 (0.01‐1000 nmol/L for PAM activity; 0.3‐10 000 nmol/L for agonist activity) in assay buffer (HBSS containing 20 mmol/L HEPES and 0.1% fatty acid‐free BSA) with or without an EC20 concentration of ACh. The inflection point (IP) and EC50 values were calculated using the following equation by GraphPad Prism 5 software (GraphPad Software Inc): Y=Bottom+(Top-Bottom)/1+10^(Log IPorEC50-X×HillSlope))
(§3) where X and Y are the log concentration of a compound and the percentage of Ca^2+ response, respectively, and Top and Bottom are the upper and lower plateaus, respectively.

For the next series, the system named is human M2R–M5R. The experiment in a line: Ca2+ mobilization assay, PAM activity (with EC20 ACh), CHO‐K1 cells. The format is cell-based. Conditions: inflection point, EC20 concentration of ACh, read-out: PAM activity IP. The procedure: as §2, §3

Where two headings read alike, the source gives them in different places. A value given as a limit tells only on which side of the number the result lay.

Results on two molecules are retold here after paper PMC6986443, “T‐495, a novel low cooperative M1 receptor positive allosteric modulator, improves memory deficits associated with cholinergic dysfunction and is characterized by low gastrointestinal side effect risk” (Pharmacology Research & Perspectives, 2020).

`Cc1ccc(Cc2cc3c(=O)n([C@H]4CCCC[C@@H]4O)cnc3c3ccccc23)cn1` [MK‐7622, 3‐((1S,2S)‐2‐hydroxycyclohexyl)‐6‐((6‐methylpyridin‐3‐yl)methyl)benzo[h]quinazolin‐4(3H)‐one, reference compound]: the concentration at 2 h came to 456 ± 85.8 ng/g in series [1] (brain (hippocampus), 20 mg/kg, M1R KO mice hippocampus, 20 mg/kg p.o., read-out: Brain concentration); 582 ± 133 ng/g in series [1] (brain (hippocampus), 20 mg/kg, wild-type mice hippocampus, 20 mg/kg p.o., read-out: Brain concentration); 2190 ± 312 ng/mL in series [1] (plasma, 20 mg/kg, M1R KO mice, 20 mg/kg p.o., n = 10, read-out: Plasma concentration); 2240 ± 376 ng/mL in series [1] (plasma, 20 mg/kg, wild-type mice, 20 mg/kg p.o., n = 10, read-out: Plasma concentration). Further, the concentration ratio (Kp) at 2 h is 0.21 in series [1] (20 mg/kg, M1R KO mice, 20 mg/kg p.o.) and 0.26 in series [1] (20 mg/kg, wild-type mice, 20 mg/kg p.o.). The “minimum effective dose for increase of IP1 production in the mouse hippocampus” value in series [2] was 10 mg/kg. The “Cooperativity α” value on human M1R [3] amounted to 511. Moreover, the “Cooperativity Log α” value at human M1R [3] is given as 2.71 (2.48‐2.94). Moreover, the “IP1 production in the rat hippocampus” value in series [4] (10 mg/kg p.o.) is listed as “significantly increased”. The values for the EC50 at human M1R [5] and in the series with human M2R–M5R were 407 nM and greater than 1000 nM, respectively. Also, the “margin between PAM and agonist activities” value on human M1R [5] is listed as 313 fold.

As for `Cc1c(Cc2ccc(Cl)nc2)cc2c(c1Cl)OCN([C@H]1CCC[C@@H]1O)C2=O` [T‐495, 8‐chloro‐6‐((6‐chloropyridin‐3‐yl)methyl)‐3‐((1S,2S)‐2‐hydroxycyclopentyl)‐7‐methyl‐2,3‐dihydro‐4H‐1,3‐benzoxazin‐4‐one], the concentration at 2 h in series [1] (brain (hippocampus), 10 mg/kg, M1R KO mice hippocampus, 10 mg/kg p.o., read-out: Brain concentration) was determined as 856 ± 78.4 ng/g; in series [1] (brain (hippocampus), 10 mg/kg, wild-type mice hippocampus, 10 mg/kg p.o., read-out: Brain concentration), 1030 ± 145 ng/g; in series [1] (plasma, 10 mg/kg, M1R KO mice, 10 mg/kg p.o., n = 10, read-out: Plasma concentration), 1590 ± 266 ng/mL; in series [1] (plasma, 10 mg/kg, wild-type mice, 10 mg/kg p.o., n = 10, read-out: Plasma concentration), 1690 ± 280 ng/mL. In addition, the Kp at 2 h in series [1] (10 mg/kg, M1R KO mice, 10 mg/kg p.o.) was 0.55; in series [1] (10 mg/kg, wild-type mice, 10 mg/kg p.o.) it was 0.62 ± 0.1. The “minimum effective dose for increase of IP1 production in the mouse hippocampus” value in series [2] is reported as 10 mg/kg. The “Cooperativity α” value at human M1R [3] turned out to be 170. Besides, the “Cooperativity Log α” value on human M1R [3] is 2.23 (2.07‐2.40). Besides, the “IP1 production in the rat hippocampus” value in series [4] (10 mg/kg p.o.) and in series [4] (30 mg/kg p.o.) was “significantly increased” in each case. Besides, the results for the EC50 at human M1R [5] and with human M2R–M5R were 649 nM and greater than 1000 nM, respectively. Also, the “margin between PAM and agonist activities” value on human M1R [5] is 282 fold.
